Test results: patent US20060189684A1, “3-Phenylfuran-2-one derivatives as cox-2 inhibitor” (priority 2003, published 2006)

How the values were obtained:
COX-1 = biological target: T1, COX-1 (Homo sapiens, UniProt P23219); test: COX-1 activity in human whole blood (TXB2, calcium ionophore A23187); assay type: cell-based; details: 24 h at 37° C., A23187 25 μM, TXB2 by ELISA
T1 construct: from tissue; host or cells: fresh heparinized human whole blood from healthy volunteers
Experimental: (§1) COX-1 and COX-2 Activities in Human Whole Blood
Fresh blood from healthy volunteers who had not taken any non-steroidal anti-inflammatory drugs for at least 7 days prior to blood extraction was collected in heparinized tubes (20 units of heparin per ml). For the COX-1 activity determination, 500 μl aliquots of blood were incubated with either 5 μl vehicle (dimethylsulphoxide) or 5 μl of a test compound solution for 24 h at 37° C. Calcium ionophore A23187 (25 μM) was added 20 min before the incubation was ended. Plasma was separated by centrifugation (10 min at 13000 rpm) and kept at −30° C. until TXB2 levels were measured using an enzyme immunoassay kit (ELISA).
The effect of the compounds was evaluated by incubating each compound at five to six different concentrations with triplicate determinations. IC50 values were obtained by non-linear regression using InPlot, GraphPad software on an IBM computer.

COX-2 = biological target: T2, COX-2 (Homo sapiens, UniProt P35354); test: COX-2 activity in human whole blood (PGE2, LPS-induced); assay type: cell-based; details: for IC50: human whole blood, LPS 10 μg/ml, 24 h at 37° C., PGE2 by ELISA; for Ratio COX-1/COX-2: ratio of human whole blood IC50 values
T2 construct: blood were incubated in the presence of LPS (10 μg/ml) for 24 h at 37° C. in order to induce the COX-2 expression; from tissue; host or cells: fresh heparinized human whole blood from healthy volunteers, LPS-stimulated
T2 sequence (P35354 18-604): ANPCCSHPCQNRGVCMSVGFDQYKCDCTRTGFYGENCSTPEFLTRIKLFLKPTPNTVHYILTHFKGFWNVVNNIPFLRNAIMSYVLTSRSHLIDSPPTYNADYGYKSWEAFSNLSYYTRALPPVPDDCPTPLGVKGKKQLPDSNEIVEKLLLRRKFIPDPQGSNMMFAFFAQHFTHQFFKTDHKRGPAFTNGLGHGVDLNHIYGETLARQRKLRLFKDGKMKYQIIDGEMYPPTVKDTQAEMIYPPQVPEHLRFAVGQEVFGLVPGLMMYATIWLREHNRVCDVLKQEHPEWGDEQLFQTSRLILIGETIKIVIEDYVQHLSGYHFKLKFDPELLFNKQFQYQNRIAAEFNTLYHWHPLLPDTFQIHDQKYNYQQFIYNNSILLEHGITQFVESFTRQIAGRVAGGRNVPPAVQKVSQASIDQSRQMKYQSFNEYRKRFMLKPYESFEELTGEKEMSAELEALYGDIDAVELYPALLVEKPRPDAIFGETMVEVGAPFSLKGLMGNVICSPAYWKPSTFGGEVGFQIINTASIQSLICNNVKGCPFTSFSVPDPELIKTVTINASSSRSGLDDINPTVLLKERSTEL
Experimental: as §1
For the COX-2 activity determination, 500 μl aliquots of blood were incubated in the presence of LPS (10 μg/ml) for 24 h at 37° C. in order to induce the COX-2 expression (Patriagnani et al., J. Pharm. Exper. Ther. 271; 1705-1712 (1994)). Plasma was separated by centrifugation (10 min at 13000 rpm) and kept at −30° C. until PGE2 levels were measured using an enzyme immunoassay kit (ELISA). The effects of inhibitors were studied by incubating each compound (5 μl aliquots) at five to six different concentrations with triplicate determinations in the presence of LPS for 24 hours. IC50 values were obtained by non-linear regression using InPlot, GraphPad software on an IBM computer.

T1 sequence (P23219 24-599): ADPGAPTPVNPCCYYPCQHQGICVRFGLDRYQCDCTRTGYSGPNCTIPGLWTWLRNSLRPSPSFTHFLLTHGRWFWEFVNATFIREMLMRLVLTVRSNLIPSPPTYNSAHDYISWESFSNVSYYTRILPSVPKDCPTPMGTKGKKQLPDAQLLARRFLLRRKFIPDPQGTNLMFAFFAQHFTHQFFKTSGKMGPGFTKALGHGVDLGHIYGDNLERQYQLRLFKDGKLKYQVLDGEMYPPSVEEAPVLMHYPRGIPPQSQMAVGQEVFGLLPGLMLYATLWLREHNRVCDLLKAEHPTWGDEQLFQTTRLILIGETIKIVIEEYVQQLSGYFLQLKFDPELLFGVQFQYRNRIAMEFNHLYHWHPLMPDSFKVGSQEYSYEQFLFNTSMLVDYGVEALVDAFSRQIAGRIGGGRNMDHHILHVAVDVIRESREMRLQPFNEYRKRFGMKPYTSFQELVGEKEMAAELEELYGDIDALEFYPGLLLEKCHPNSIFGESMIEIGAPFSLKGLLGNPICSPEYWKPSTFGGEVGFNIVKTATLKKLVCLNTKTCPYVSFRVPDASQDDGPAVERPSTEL

Question: How did the IC50 (COX-1) turn out when C[S+]([O-])c1ccc(C2=C(c3ccccc3)C(=O)OC2)cc1 (racemic) [4-[4(methylsulfinyl)phenyl]-3-phenylfuran-2(5H)-one (racemate), 4-[4-(Methylsulfinyl)phenyl)-3-phenylfuran-2(6H)-one] was run?
Answer: 33.4 µM

Question: How did the IC50 (COX-1) turn out when C[S@@+]([O-])c1ccc(C2=C(c3ccccc3)C(=O)OC2)cc1 [4-[4(methylsulfinyl)phenyl]-3-phenylfuran-2(5H)-one (Enantiomer 1a)] was run?
Answer: 32.2 µM

Question: And the IC50 (COX-2)?
Answer: 4.22 µM

Question: And the “Ratio COX-1/COX-2” value (COX-2)?
Answer: 7.6

Question: With C[S@+]([O-])c1ccc(C2=C(c3ccccc3)C(=O)OC2)cc1 [4-[4(methylsulfinyl)phenyl]-3-phenylfuran-2(5H)-one (Enantiomer 1b)] as the compound, how does the IC50 (COX-1) read?
Answer: 37.8 µM

Question: What about the IC50 (COX-2) of the same compound?
Answer: 2.1 µM

Question: What about the “Ratio COX-1/COX-2” value (COX-2) of the same compound?
Answer: 18
